Experimental data: patent US6451803B1, “N-acyl and n-aroyl aralkyl amides useful in treating seritonergic disorders” (Pfizer INC, priority 1998, dated 2002)

CN1CCN(c2ccccc2CCNC(=O)c2ccc(Cl)c(Cl)c2)CC1.Cl.O (hydrate or solvate)
melting point: 110 to 120 °C
